Measured values: patent publication US10286084B2, “Compositions for the inactivation of virus replication and methods of making and using the same” (priority 2014, dated 2019)

Tests used:
Assay type in all cases: cell-based, human
p53 and p21 expression = assay: Western blot of transfected HeLa cells for p53 and p21; details: Spy Cas9, 48 h post-transfection
Method: (§1) Phenotypic analysis of RGNs in HeLa was performed using the Fugene6 transfection reagent as per the manufacturer's protocol. Cells were plated at 2.5×10^5 cells per well in 6-well plates and transfected with a 3 to 1 ratio of RGN expression vector to pLCE (a GFP-expressing plasmid included to determine transfection efficiency). SiHa cells were transfected with HPV-16-specific RGN expression vectors using Lipofectamine3000 (Clontech) using the manufacturer's protocol. Cells were then harvested and lysed in SDS/β-mercaptoethanol protein lysis buffer 48 hours post transfection. Lysates were subjected to electrophoresis on 4-20% SDS-polyacrylamide gels (Bio-Rad) and transferred to nitrocellulose membranes. The membranes were then probed in 5% milk-PBS-T (PBS, 0.1% Tween 20, 0.5% bovine serum albumin) with the following antibodies: anti-Flag (Sigma F1804), a rabbit Rev polyclonal antiserum (Malim et al., 1989), anti-β-actin (Santa Cruz S.C.-47778), anti-p53 (Santa Cruz S.C.-126), anti-p21 (Santa Cruz S.C.-397), and anti-Rb (BD Pharmigen 554136). The membranes were washed in PBS-T, incubated with a species-specific secondary antibody, and then washed again in PBS-T. The membranes were incubated with Western Bright Sirius Western blot detection kit (Advansta) and signals captured using GeneSnap and quantified using GeneTools (Syngene). […]

p53 effector protein p21 = assay: Western blot of transfected SiHa cells for p21; details: SiHa (HPV-16) cells, Spy Cas9
Method: as §1, with “The membranes were then probed in 5% milk-PBS-T (PBS, 0.1% Tween 20, 0.5% bovine serum albumin) with the following antibodies: anti-Flag (Sigma F1804), a rabbit Rev polyclonal antiserum (Malim et al., 1989), anti-β-actin (Santa Cruz S.C.-47778), anti-p53 (Santa Cruz S.C.-126), anti-p21 (Santa Cruz S.C.-397), and anti-Rb (BD Pharmigen 554136).” left out
All the work described thus far used the HPV-18 transformed cervical carcinoma cell line HeLa. To extend these studies, we also analyzed the human SiHa cervical carcinoma cell line, which is transformed by HPV-16 (Seedorf et al., 1987), using sgRNAs specific for HPV-16 E6 and E7, which differ in sequence from HPV-18 E6 and E7. […]

[1] = test system: retinoblastoma (Rb) protein; assay: Western blot and pRB quantification in transfected HeLa cells
Method: as §1

E6 sgRNA1: Spy Cas9 sgRNA for HPV-18 E6, GGCGCTTTGAGGATCCAACA; SEQ ID NO: 8 (expressed or natural sequence)
p53 and p21 expression (p53 and p21 expression): specific induction of both p53 and p21 expression | p21 expression (p53 effector protein p21): failed to induce p21 expression

E7 sgRNA1: Spy Cas9 sgRNA for HPV-18 E7, GGAGCAATTAAGCGACTCAG; SEQ ID NO: 10 (expressed or natural sequence)
increase in Rb expression normalized to β-actin internal control ([1]; Spy Cas9, 48 h post-transfection): 1.4±0.03 fold | increase in Rb expression over the control, decrease of Cas9 expression taken into account ([1]; Spy Cas9, p=0.011): 5.54±1.42 fold
